Measured values from patent publication US7939341B2, “Membrane arrays and methods of manufacture” (Corning Incorporated, priority 2004, dated 2011).

Target: motilin receptor (Motilin) (Homo sapiens, UniProt O43193)
Assay: GPCR array functional assay (Eu-GTP binding) on GAPS coated porous slide, Motilin receptor
Type: biochemical
Conditions: agonist at 1 μM, 10 nM Eu-GTP, 3 μM GDP, 1 hour incubation, time-resolved fluorescence
Procedure: 2) Assays performing—the printed GPCR arrays are then incubated with assay buffers containing GTP analogue probes in the presence or absence of receptor agonist for certain time (e.g., 45 minutes), and at the end of incubation period the assay solutions are removed, the slides are rinsed with GTP wash buffer and dried with nitrogen;
3) Imaging—when Eu-GTP is used as a probe, the slides are then directly scanned using a time-resolved fluorescence imaging system; and, if biotin-GTPγS is used as a probe, an extra incubation step is often performed before imaging. For example, the array is then further incubated with Gold particles labeled streptavadin in order to detect bounded biotin-GTPγS, resonance light scattering imaging system is then used.
The EuGTP assay buffer contained 10 nM Eu-GTP, 50 mM HEPES buffer, pH 7.4, 3 μM GDP, 10 mM MgCl2, 100 mM NaCl, and 0.1% protein blocker. At the end of the incubation, the assay buffers were removed. Afterwards, slides were washed, dried and imaged with in-house developed time-resolved fluorescence imaging system.

Sequence of motilin receptor (Motilin) (O43193 whole entry, species assumed): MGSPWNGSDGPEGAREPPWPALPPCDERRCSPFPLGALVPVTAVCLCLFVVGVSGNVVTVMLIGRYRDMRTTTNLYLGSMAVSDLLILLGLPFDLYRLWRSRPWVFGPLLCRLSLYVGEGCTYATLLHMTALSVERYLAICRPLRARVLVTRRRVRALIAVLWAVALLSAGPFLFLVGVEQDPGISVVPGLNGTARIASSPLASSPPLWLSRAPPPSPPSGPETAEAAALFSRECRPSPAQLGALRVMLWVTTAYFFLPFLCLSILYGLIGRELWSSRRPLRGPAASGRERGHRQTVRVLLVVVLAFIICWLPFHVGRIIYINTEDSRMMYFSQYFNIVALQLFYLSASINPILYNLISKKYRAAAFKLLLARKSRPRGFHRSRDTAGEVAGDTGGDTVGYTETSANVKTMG

binding of EuGTP to the GPCR microspots (receptor activation by agonist): increase the binding of EuGTP
Structure (SMILES): CC[C@H](C)[C@H](NC(=O)[C@@H]1CCCN1C(=O)[C@@H](NC(=O)[C@@H](N)Cc1ccccc1)C(C)C)C(=O)N[C@@H](Cc1ccccc1)C(=O)N[C@H](C(=O)N[C@@H](Cc1ccc(O)cc1)C(=O)NCC(=O)N[C@@H](CCC(=O)O)C(=O)N[C@@H](CC(C)C)C(=O)N[C@@H](CCC(N)=O)C(=O)N[C@@H](CCCNC(=N)N)C(=O)N[C@@H](CCSC)C(=O)N[C@@H](CCC(N)=O)C(=O)N[C@@H](CCC(=O)O)C(=O)N[C@@H](CCCCN)C(=O)N[C@@H](CCC(=O)O)C(=O)N[C@@H](CCCNC(=N)N)C(=O)N[C@@H](CC(N)=O)C(=O)N[C@@H](CCCCN)C(=O)NCC(=O)N[C@@H](CCC(N)=O)C(=O)O)[C@@H](C)O [motilin]
